Experiment [1] deals with STIM1 and Orai1 in HEK293 cells (Homo sapiens, UniProt Q96D31). The settings on record: HEK293 cells expressing STIM1 and Orai1; cited from earlier work.
The next experiment relates to Jurkat cells. The settings on record: cited from earlier work.
For experiment [2], the target named is T1, recombinant human STIM1 and Orai1 (HEK-293 cells) (Homo sapiens, UniProt Q96D31).
T1 construct: c-myc (C); expressed in transfected cells; host or cells: HEK-293
The experiment in a line: Fluorescence-based assay of store-operated calcium entry in Orai1/STIM1 stable cells. It counts as cell-based. The following applies: concentration that inhibited 50% of the Peak-Basal fluorescence signal; 30 min compound incubation; read-out: IC50(μM) JR251. On the procedure:
A. Fluorescence-based Assay of Store-Operated Calcium Entry in Orai1/STIM1 Stable Cells.
Cells stably expressing recombinant human STIM1 and Orai1 were generated by transfecting a human Orai1 expression plasmid (pcDNA3.1-Orai1-cmyc) into HEK-293 cells stably overexpressing human STIM1 (Roos et al. 2005 JCB 169(3): 435-445). Colonies of cells stably expressing both STIM1 and Orai1 proteins were selected and then subcloned by limiting dilution. Cells were cultured at 37° C./6% CO2 in complete medium with 10% FBS and appropriate selection markers.
The day prior to performing the assay Orai1/STIM1 stable cells were plated in 50 μL of complete medium at 90-95% confluence in a 384 well plate. Cells were grown at 37° C./6% CO2 overnight. On the day of the assay, 1.5 μM fluo-4-AM (Invitrogen) in complete medium was added to the cells, which were then incubated for 1 hour at RT. Cells were washed once in Ca^2+-free HBSS (Hank's buffered saline solution) and 35 μl of Ca^2+-free HBSS was added to each well. Test compounds were added to wells in a 10 μL Ca^2+-free HBSS solution, prepared at 4.5× the desired final concentration, and incubated for 30 minutes at RT. The initial baseline fluorescence signal was then measured with a FLIPR^384 (Molecular Devices) plate reader. Calcium entry was initiated by adding 5 μl of 10× CaCl2 (10 mM) in HBSS, and changes in cellular fluorescence were measured with the FLIPR^384 plate reader. In each well, the magnitude of the fluorescence signal as a result of calcium entry into the cell was determined by calculating the difference between the peak fluorescence signal measured after calcium addition and the initial baseline fluorescence signal (designated Peak-Basal). IC50 values were typically calculated as the concentration that inhibited 50% of the Peak-Basal signal (Table A).

The next experiment concerns RBL-2H3 cells. The experiment in a line: Fluorescence-based assay of store-operated calcium entry in RBL-2H3 cells. It counts as cell-based. The settings on record: Rattus norvegicus, thapsigargin store depletion, 50% of the Upslope inhibited. On the procedure:
B. Fluorescence-based Assay of Store-Operated Calcium Entry in RBL-2H3 Cells.
RBL-2H3 cells were obtained from ATCC and maintained in complete medium with 10% FBS at 37° C./6% CO2.
The day prior to performing the assay, RBL-2H3 cells are plated in 50 μL of complete medium in a 384 well plate. Cells are grown at 37° C./6% CO2 overnight and grow to 50-60% confluence by the next day. On the assay day, 1.5 μM Fluo-4-AM dye (Invitrogen) in complete medium is added and incubated for 1 hour at RT. Cells are washed twice in Ca^2+-free HBSS buffer and 35 μL Ca^2+-free HBSS buffer is added to each well. 10 μL of a test compound prepared in a Ca^2+-free HBSS solution at 4.5× of the desired concentration is added to a well and incubated for 5 minutes at RT. 10 μL of thapsigargin prepared in a Ca^2+-free HBSS solution at 5.5× of the desired concentration (5.5 uM) is added to each well and incubated for an additional 25 minutes. The initial baseline fluorescence signal is measured with a FLIPR^384 (Molecular Devices) plate reader. 5 μL of 12× calcium in HBSS (12 mM) is added and changes in cellular fluorescence are measured with the FLIPR^384 plate reader. In each well, the change in the fluorescent signal as a function of time due to calcium entry into the cell is determined by calculating the difference between the fluorescent signal measured 7 seconds after calcium addition and the initial baseline fluorescence signal at time zero (t=0). This parameter is designated Upslope. The IC50 value is calculated as the concentration at which 50% of the Upslope is inhibited.

Structures are written as SMILES. Where only a bound is given, the exact number is not on record here.

The text below walks through data of patent US20130079348A1, “COMPOUNDS THAT MODULATE INTRACELLULAR CALCIUM” (CalciMedica, Inc., priority 2010, published 2013).

T1 sequence (Q96D31 whole entry): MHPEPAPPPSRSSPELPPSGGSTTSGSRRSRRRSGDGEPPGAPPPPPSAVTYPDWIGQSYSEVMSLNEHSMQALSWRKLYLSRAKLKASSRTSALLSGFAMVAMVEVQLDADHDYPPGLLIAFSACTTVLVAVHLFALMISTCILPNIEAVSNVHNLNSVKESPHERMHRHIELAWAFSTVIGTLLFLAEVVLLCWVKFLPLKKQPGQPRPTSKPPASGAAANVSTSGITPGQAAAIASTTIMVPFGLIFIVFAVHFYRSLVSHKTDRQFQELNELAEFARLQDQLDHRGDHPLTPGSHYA
Sequence of STIM1 and Orai1 in HEK293 cells (Q96D31 whole entry): as above

`NCCOB(c1ccccc1)c1ccccc1` [2-aminoethoxydiphenylborate]: the “block of store-operated Ca2+ entry” value in experiment [1] is “completely blocked”.
Regarding `Cc1nnsc1C(=O)Nc1ccc(-n2nc(C(F)(F)F)cc2C(F)(F)F)cc1` [BTP-2], the inhibition of proliferation entry with Jurkat cells (Jurkat cells and colon cancer cells) is listed as “inhibits”. Further, in the experiment with Jurkat cells (Jurkat cells), the “inhibition of SOCE” value was “inhibits”.
`Cc1ccc(-c2scc(NC(=O)c3cc4c(F)cccn4n3)c2C(=O)O)c(F)c1` [Compound 1]: the IC50 (in experiment [2]; in the experiment on RBL-2H3 cells) was not above 0.5 µM each time.
For the compound `Cc1ccc(-c2csc(NC(=O)c3cc4cccc(C)n4n3)c2C(=O)O)c(F)c1` [Compound 2], the half-maximal inhibitory concentration (IC50) (in experiment [2]; in the experiment on RBL-2H3 cells) was not above 0.5 µM throughout.
For `Cc1ccc(-c2csc(NC(=O)c3cc4cccc(C)n4n3)c2C(=O)O)c(F)c1F` [Compound 3], in the experiment on RBL-2H3 cells, the IC50 was not above 0.5 µM.
On the same count and under the same terms, the same measure for `Cc1ccc(-c2csc(NC(=O)c3nn4ccccc4c3N)c2C(=O)O)c(F)c1F` [Compound 4]: 1 to 10 µM.
As for `O=C(Nc1scc(-c2ccc(Cl)cc2)c1C(=O)O)c1cc2c(F)cc(F)cn2n1` [Compound 5], the IC50 fell in the range of 1 to 10 µM in experiment [2] and 0.5 to 1 µM in the experiment with RBL-2H3 cells.
On to `Cc1ccc(-c2csc(NC(=O)c3cc4c(F)cc(F)cn4n3)c2C(=O)O)c(F)c1F` [Compound 6], for which, in the experiment on RBL-2H3 cells, the half-inhibitory concentration (IC50) was in the range of 0.5 to 1 µM.
In the case of `COc1cccn2nc(C(=O)Nc3scc(-c4ccc(Cl)cc4)c3C(=O)O)cc12` [Compound 7], the half-maximal inhibitory concentration (IC50) with RBL-2H3 cells lay in the range of 0.5 to 1 µM.
The same measure, in the same setting: to `Cc1ccc(-c2csc(NC(=O)c3cc4ccc(F)cn4n3)c2C(=O)O)c(F)c1F` [Compound 8] belongs 0.5 to 1 µM.
For the compound `COc1cccc2cc(C(=O)Nc3scc(-c4ccc(Cl)cc4)c3C(=O)O)nn12` [Compound 9], the IC50 in experiment [2] is 0.5 to 1 µM; in the experiment on RBL-2H3 cells, 1 to 10 µM.
Turning to `COc1cccn2nc(C(=O)Nc3scc(-c4ccc(C)c(F)c4F)c3C(=O)O)cc12` [Compound 10], in the experiment on RBL-2H3 cells, the IC50 lay within 0.5 to 1 µM.
For `Cc1ccc(-c2csc(NC(=O)c3nc4ccc(F)cc4s3)c2C(=O)O)c(F)c1F` [Compound 11], the 50% inhibitory concentration (IC50) (in experiment [2]; with RBL-2H3 cells) was not above 0.5 µM each time.
For `Cc1ccc(-c2csc(NC(=O)c3nc4ccc(F)cc4s3)c2C(=O)O)c(F)c1` [Compound 12], the concentration for half-maximal inhibition (IC50) in experiment [2] was 0.5 to 1 µM; in the experiment with RBL-2H3 cells, not above 0.5 µM.
For `O=C(Nc1scc(-c2ccc(Cl)cc2F)c1C(=O)O)c1nc2c(F)cccc2s1` [Compound 13], the IC50 in experiment [2] was 0.5 to 1 µM; with RBL-2H3 cells, not above 0.5 µM.
The like results for `Cc1ccc(-c2csc(NC(=O)c3nc4c(F)cccc4s3)c2C(=O)O)c(F)c1` [Compound 14] were, in that order, 0.5 to 1 µM and 0.5 to 1 µM.
As for `Cc1ccc(-c2csc(NC(=O)c3nc4cc(C(F)(F)F)ccc4s3)c2C(=O)O)c(F)c1F` [Compound 15], in the experiment on RBL-2H3 cells, the IC50 lay within 0.5 to 1 µM.
Still for that read-out and setting: the same measure for `Cc1ccc(-c2csc(NC(=O)c3nc4ccc(Br)cc4s3)c2C(=O)O)c(F)c1F` [Compound 16]: not above 0.5 µM.
Regarding `Nc1cccc2nc(C(=O)Nc3scc(-c4ccc(Cl)cc4)c3C(=O)O)sc12` [Compound 17], the 50% inhibitory concentration (IC50) (in experiment [2]; in the experiment on RBL-2H3 cells) was not above 0.5 µM in each case.
Turning to `Cc1ccc(-c2csc(NC(=O)c3nc4cccc(N)c4s3)c2C(=O)O)c(F)c1F` [Compound 18], the concentration for half-maximal inhibition (IC50) in experiment [2] was 0.5 to 1 µM; in the experiment on RBL-2H3 cells, not above 0.5 µM.
The like results for `COc1ccc2sc(C(=O)Nc3scc(-c4ccc(Cl)cc4)c3C(=O)O)nc2c1` [Compound 19] were, in that order, 0.5 to 1 µM and not above 0.5 µM.
Consider `COc1cccc2sc(C(=O)Nc3scc(-c4ccc(Cl)cc4)c3C(=O)O)nc12` [Compound 20], for which the IC50 was not above 0.5 µM in experiment [2] and 0.5 to 1 µM in the experiment with RBL-2H3 cells.
The like results for `O=C(Nc1scc(-c2ccc(Cl)cc2)c1C(=O)O)c1nc2cccc(Cl)c2s1` [Compound 21] were, in that order, 0.5 to 1 µM and not above 0.5 µM.
On to `Cc1ccc(-c2csc(NC(=O)c3nc4cccc(Cl)c4s3)c2C(=O)O)c(F)c1F` [Compound 22], for which the results for the half-maximal inhibitory concentration (IC50) (in experiment [2]; with RBL-2H3 cells) were 0.5 to 1 µM and not above 0.5 µM, respectively.
Taken in the same sequence, the figures for `Cc1ccc(-c2csc(NC(=O)c3sc4ccccc4[n+]3[O-])c2C(=O)O)c(F)c1F` [Compound 23] were 0.5 to 1 µM and not above 0.5 µM.
For the compound `CC(=O)Nc1cccc2nc(C(=O)Nc3scc(-c4ccc(Cl)cc4)c3C(=O)O)sc12` [Compound 24], the IC50 fell in the range of 1 to 10 µM in experiment [2] and 0.5 to 1 µM in the experiment on RBL-2H3 cells.
The like results for `Cc1ccc(-c2csc(NC(=O)c3nc4cccc(O)c4s3)c2C(=O)O)c(F)c1F` [Compound 25] were, in that order, 0.5 to 1 µM and 1 to 10 µM.
Taken in the same sequence, the figures for `Cc1ccc(-c2csc(NC(=O)c3c(O)ccc(F)c3F)c2C(=O)O)c(F)c1F` [Compound 26] were not above 0.5 µM and not above 0.5 µM.
For `Cc1ccc(-c2csc(NC(=O)c3cc(F)cc(F)c3O)c2C(=O)O)c(F)c1F` [Compound 27], the 50% inhibitory concentration (IC50) (in experiment [2]; in the experiment on RBL-2H3 cells) was not above 0.5 µM each time.
For `O=C(O)c1c(-c2ccc(Cl)cc2)csc1NC(=O)N1Cc2cccc(F)c2C1` [Compound 28], the IC50 (in experiment [2]; in the experiment with RBL-2H3 cells) was not above 0.5 µM throughout.
As for `Cc1ccc(-c2csc(NC(=O)c3ccc(F)c(F)c3O)c2C(=O)O)c(F)c1F` [Compound 29], the IC50 (in experiment [2]; in the experiment on RBL-2H3 cells) was not above 0.5 µM throughout.
